In assay [1] the target is T1, binding of His-XIAP(BIR2)-avi fusion protein to GST-RIPK2 fusion protein (RIPK2/XIAP) (Homo sapiens, UniProt O43353).
T1 construct: made in house; host or cells: baculovirus infected Sf9 cells
Description: RIPK2-XIAP binding competition PPI assay (TR-FRET). Conditions: RIPK2/XIAP binding competition PPI assay; for Emax / PPI Amax bin: Amax; for Emax: read-out: PPI Amax bin; for IC50: read-out: PPI IC50 bin. The text has this:
The ability of selected compounds of Formula (I) to inhibit the binding of an His-XIAP(BIR2)-avi fusion protein to a GST-RIPK2 fusion protein was quantified employing the TR-FRET-based competition assay as described in the following paragraphs.
Recombinant fusion protein of N-terminal Glutathione-S-Transferase (GST) and a fragment of human RIPK2 (amino acids 1-310 of accession number 043353), expressed in baculovirus infected Sf9 cells, purified via glutathione affinity chromatography, was used as GST-RIPK2 fusion protein. Recombinant fusion protein of N-terminal 6×Histidine (His), a fragment of human XIAP (amino acids 152-231 of accession number P98170), and C-terminal avi tag, expressed in baculovirus infected Sf9 cells, purified via Nickel NTA affinity chromatography, was used as the His-XIAP(BIR2)-avi fusion protein.
For the assay, a working solution of 1 nM GST-RIPK2, 25 nM His-XIAP(BIR2)-avi, 6 nM Anti-His-XL665 […] (Revvity Catalogue No. 61HISXLB), and 0.5 nM Anti-GST-Tb (Revvity Catalogue No. 61GSTTLB) in 25 mM Tris-HCl 7.5, 0.5 mM ethylene glycol-bis(2-aminoethylether)-N,N,N′,N′-tetraacetic acid (EGTA), 10 mM magnesium chloride (MgCl2), 2.5 mM dithiothreitol (DTT), 0.01% (w/v) bovine serum albumin (BSA), 0.005% (w/v) Pluronic F-127 (Sigma), 0.5 mM sodium ortho-vanadate, 5 mM β-Glycerophosphate disodium salt hydrate (BGP) was prepared. 50 nL of a 100-fold concentrated solution of each test compound in DMSO was dispensed via acoustic dispensing into a white low volume 384-well microtiter plate (Perkin Elmer Catalogue No. 6008280). Subsequently, 5 μL of the assay working solution were added.
The resulting mixture was incubated 120 min at 23° C. Subsequently, the amount of complex formed by the GST-RIPK2, XIAP(BIR2)-avi, Anti-His-XL665, and Anti-GST-Tb was evaluated by measurement of the resonance energy transfer from the Tb-cryptate to the XL665. Therefore, the fluorescence emissions at 520 nm and 665 nm after excitation at 337 nm were measured in a TR-FRET reader, e.g. a Pherastar FS (BMG Labtechnologies, Offenburg, Germany) or an Envision (PerkinElmer). The ratio of the emissions at 665 nm and at 520 nm was taken as the measure of the amount of the complex. The data were normalized (assay reaction without inhibitor=0% activity, 50 nM of GSK583=−100% activity).
For the RIPK2/XIAP binding competition PPI assay Amax values, “A” denotes an Amax of ≥80%; “B” denotes an Amax of 80%>B≥55; “C” denotes an Amax of 55%>C>30; and “D” denotes an Amax of ≤30%.

Assay [2] relates to NF-κB pathway (SEAP) in THP1-Dual cells. Description: THP-1 Dual cell SEAP assay (L18-MDP stimulated). Conditions: read-out: NF-κB THP1 IC50 bin. The assay is classed as cell-based. As for the experimental part:
THP1-Dual™ cells (InvivoGen Cat #thpd-nfis) allow simultaneous assessment of the NF-κB pathway, by monitoring the activity of secreted embryonic alkaline phosphatase (SEAP) as well as the IRF pathway, by assessing the activity of a secreted luciferase (Lucia). Cells were cultured according to manufacturers' recommendations. For the assay, cell concentration was adjusted to 7.14×10^5 cells/mL in assay media (RPMI 1640, 2 mM L-Glutamine, 25 mM HEPES, 10% fetal bovine serum (heat-inactivated for 30 min at 56° C.), Pen-Strep (100 U/mL)) and 35 µL of cell suspension (˜25,000 cells) per well were added to a flat bottom 384-well plate (white opaque). Plate was centrifuged at 300 g for 2 min, compounds were added in serial dilution series according to the plate layout (volumes ˜500 nL-0.0152 nL) and plate was incubated at 37° C. in 5% CO2 for 30 min. Using assay media, a L18-MDP stock solution, that results in a final concentration of 10 ng/mL L18-MDP in each well when adding 15 μL to each well, was prepared. 15 μL of L18-MDP stock solution was added to each well, while 15 μL of assay media was added to the negative control wells. Plates were subsequently incubated at 37° C. in 5% CO2 overnight (20-24 h).
For the SEAP assay: without disturbing the cells at the bottom of the well, 15 μL supernatant was transferred to a clear 384-well flat bottom plate and 35 μL QUANTI-Blue Solution per well was added. Following a 2 h incubation at 37° C., the optical density (OD) was measured at 620-655 nm using a microplate reader (PheraStar FS microplate reader with protocol for OD 620-655 nm).
Values of media-only wells were subtracted and % inhibition for each compound concentration relative to the DMSO/L18-MDP-treated controls was calculated. Inhibition values+/−SD were fitted by non-linear regression using Prism software (GraphPad PRISM Software) to calculate IC50 values.

Molecules are shown by their SMILES. Where two headings read alike, the source gives them in different places. A value given as a limit tells only on which side of the number the result lay.

T1 sequence (O43353 1-310 limits assumed): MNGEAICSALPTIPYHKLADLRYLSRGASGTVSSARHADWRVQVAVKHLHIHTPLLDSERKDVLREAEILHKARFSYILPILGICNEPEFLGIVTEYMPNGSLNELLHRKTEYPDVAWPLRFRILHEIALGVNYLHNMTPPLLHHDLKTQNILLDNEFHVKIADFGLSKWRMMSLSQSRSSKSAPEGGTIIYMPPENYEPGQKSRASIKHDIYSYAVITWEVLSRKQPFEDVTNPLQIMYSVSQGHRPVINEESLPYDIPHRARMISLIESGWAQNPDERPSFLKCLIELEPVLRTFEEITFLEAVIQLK

Take `CC(F)(CO)COc1cc2ncc(-c3cc(F)c(N)nc3F)n2cc1S(=O)(=O)C(C)(C)C` (single isomer, unassigned) [Example 260]: in assay [1], the Emax is over 80% and the IC50 was 0.001 to 0.0025 µM. In assay [2] (Homo sapiens, THP1-Dual), the IC50 lay in the range of 0.05 to 0.25 µM.

For `CC(F)(CO)COc1cc2ncc(-c3cc(F)c(N)nc3F)n2cc1S(=O)(=O)C(C)(C)C` (single isomer, unassigned) [Example 261], the IC50 lay in the range of 0.001 to 0.0025 µM in assay [1] and 0.05 to 0.25 µM in assay [2].

Consider `CC(F)(CO)COc1cc2ncc(-c3cc(Cl)c(N)nc3F)n2cc1S(=O)(=O)C(C)(C)C` (single isomer, unassigned) [Example 265], for which, in assay [1], the Emax was over 80% and the IC50 is 0.001 to 0.0025 µM. For the same compound, in assay [2] (Homo sapiens, THP1-Dual), the half-maximal inhibitory concentration (IC50) lay in the range of 0.05 to 0.25 µM.

Consider `CC(F)(CO)COc1cc2ncc(-c3cc(Cl)c(N)nc3F)n2cc1S(=O)(=O)C(C)(C)C` (single isomer, unassigned) [Example 266], for which, in assay [1], the “PPI Amax bin” value is given as “A (an Amax of ≥80%)” and the IC50 is 0.001 to 0.0025 µM. In assay [2], the IC50 lay in the range of 0.05 to 0.25 µM.

As to `COc1cc2ncc(-c3cc(NS(=O)(=O)c4cnn(C)c4)c(OC)c(OC)c3)n2cc1N1CC(C)CC1=O` (single isomer, unassigned) [Example 274], in assay [1], the Emax is over 80% and the IC50 was 0.0025 to 0.02 µM. Further, the IC50 in assay [2] was 0.25 to 1 µM.

Take `COc1cc2ncc(-c3cc(NS(=O)(=O)c4cnn(C)c4)c(OC)c(OC)c3)n2cc1N1CC(C)CC1=O` (single isomer, unassigned) [Example 275]: the “PPI Amax bin” value in assay [1] was “A (an Amax of ≥80%)”. The values for the IC50 in assay [1] and in assay [2] were 0.001 to 0.0025 µM and 0.05 to 0.25 µM, respectively.

With `COc1cc2ncc(-c3cc(F)c(OC)c(NC(C)c4cnn(C)c4)c3)n2cc1S(=O)(=O)C(C)(C)C` (single isomer, unassigned) [Example 302], in assay [1], the Emax was over 80% and the IC50 is under 0.001 µM. Moreover, the concentration for half-maximal inhibition (IC50) in assay [2] was under 0.05 µM.

Turning to `COc1cc2ncc(-c3cc(F)c(OC)c(NC(C)c4cnn(C)c4)c3)n2cc1S(=O)(=O)C(C)(C)C` (single isomer, unassigned) [Example 303], in assay [1], the “PPI Amax bin” value is listed as “A (an Amax of ≥80%)” and the IC50 fell in the range of 0.0025 to 0.02 µM. For the same compound, in assay [2], the IC50 is 0.25 to 1 µM.

In the case of `COc1cc2ncc(-c3cc(F)c(OC)c(NS(=O)(=O)c4cnn(C)c4)c3)n2cc1C(F)(F)F` [Example 136, N-(3-fluoro-2-methoxy-5-(7-methoxy-6-(trifluoromethyl)imidazo[1,2-a]pyridin-3-yl)phenyl)-1-methyl-1H-pyrazole-4-sulfonamide], in assay [1], the Emax is over 80% and the IC50 fell in the range of 0.0025 to 0.02 µM. In assay [2] (Homo sapiens, THP1-Dual), the concentration for half-maximal inhibition (IC50) lay in the range of 0.25 to 1 µM.

Regarding `COc1cc2ncc(-c3cc(F)c(OC)c(NS(=O)(=O)c4cn[nH]c4)c3)n2cc1C(F)(F)F` [Example 137, N-(3-fluoro-2-methoxy-5-(7-methoxy-6-(trifluoromethyl)imidazo[1,2-a]pyridin-3-yl)phenyl)-1H-pyrazole-4-sulfonamide], in assay [1], the Emax was over 80% and the IC50 lay within 0.0025 to 0.02 µM. The IC50 in assay [2] (Homo sapiens, THP1-Dual) lay in the range of 0.25 to 1 µM.

With `CCOc1cc2ncc(-c3cc(F)c(OC)c(NS(=O)(=O)c4cnn(C)c4)c3)n2cc1S(=O)(=O)C(C)C` [Example 138, N-(5-(7-ethoxy-6-(isopropylsulfonyl)imidazo[1,2-a]pyridin-3-yl)-3-fluoro-2-methoxyphenyl)-1-methyl-1H-pyrazole-4-sulfonamide], in assay [1], the Emax was over 80% and the IC50 was under 0.001 µM. For the same compound, the IC50 in assay [2] (Homo sapiens, THP1-Dual) is under 0.05 µM.

For the compound `COc1cc2ncc(-c3cc(F)c(OC)c(NS(=O)(=O)c4c(C)nn(C)c4C)c3)n2cc1S(=O)(=O)C(C)(C)C` [Example 139, N-(5-(6-(tert-butylsulfonyl)-7-methoxyimidazo[1,2-a]pyridin-3-yl)-3-fluoro-2-methoxyphenyl)-1,3,5-trimethyl-1H-pyrazole-4-sulfonamide], in assay [1], the Emax is 55 to 80% and the IC50 was over 0.02 µM. Also, in assay [2] (Homo sapiens, THP1-Dual), the IC50 was over 1 µM.

As for `COc1cc2ncc(-c3cc(F)c(OC)c(NS(=O)(=O)c4cn[nH]c4)c3)n2cc1S(=O)(=O)C(C)(C)C` [Example 140, N-(5-(6-(tert-butylsulfonyl)-7-methoxyimidazo[1,2-a]pyridin-3-yl)-3-fluoro-2-methoxyphenyl)-1H-pyrazole-4-sulfonamide], in assay [1], the Emax is over 80% and the concentration for half-maximal inhibition (IC50) was under 0.001 µM. Also, the IC50 in assay [2] (Homo sapiens, THP1-Dual) is under 0.05 µM.

For `COc1cc2ncc(-c3cc(F)c(OC)c(NS(=O)(=O)c4cnn(C)c4)c3)n2cc1S(=O)(=O)C(C)C` [Example 262, N-(3-fluoro-5-(6-(isopropylsulfonyl)-7-methoxyimidazo[1,2-a]pyridin-3-yl)-2-methoxyphenyl)-1-methyl-1H-pyrazole-4-sulfonamide], in assay [1], the Emax was over 80% and the IC50 was under 0.001 µM. For the same compound, the IC50 in assay [2] (Homo sapiens, THP1-Dual) is under 0.05 µM.

In the case of `COc1c(F)cc(-c2cnc3cc(Cl)c(S(=O)(=O)C(C)(C)C)cn23)cc1NS(=O)(=O)c1cnn(C)c1` [Example 263, N-(5-(6-(tert-butylsulfonyl)-7-chloroimidazo[1,2-a]pyridin-3-yl)-3-fluoro-2-methoxyphenyl)-1-methyl-1H-pyrazole-4-sulfonamide], in assay [1], the Emax was over 80% and the 50% inhibitory concentration (IC50) was under 0.001 µM. Moreover, the IC50 in assay [2] (Homo sapiens, THP1-Dual) was under 0.05 µM.

`COc1c(F)cc(-c2cnc3cc(OC[C@H](C)O)c(S(=O)(=O)C(C)(C)C)cn23)cc1NS(=O)(=O)c1cnn(C)c1` [Example 264, (S)-N-(5-(6-(tert-butylsulfonyl)-7-(2-hydroxypropoxy)imidazo [1,2-a]pyridin-3-yl)-3-fluoro-2-methoxyphenyl)-1-methyl-1H-pyrazole-4-sulfonamide]: the Emax in assay [1] is over 80%. Moreover, the IC50 in assay [1] was under 0.001 µM; in assay [2] (Homo sapiens, THP1-Dual), under 0.05 µM.

Regarding `C[C@H](O)COc1cc2ncc(-c3ccc(N)nc3F)n2cc1S(=O)(=O)C(C)(C)C` [Example 267, (S)-1-((3-(6-amino-2-fluoropyridin-3-yl)-6-(tert-butylsulfonyl)imidazo [1,2-a]pyridin-7-yl)oxy)propan-2-ol], in assay [1], the Emax is over 80% and the IC50 lay within 0.0025 to 0.02 µM. Also, the IC50 in assay [2] (Homo sapiens, THP1-Dual) is over 1 µM.

Regarding `C[C@H](O)COc1cc2ncc(-c3cc4cc[nH]c4nc3F)n2cc1S(=O)(=O)C(C)(C)C` [Example 268, (S)-1-((6-(tert-butylsulfonyl)-3-(6-fluoro-1H-pyrrolo[2,3-b]pyridin-5-yl)imidazo[1,2-a]pyridin-7-yl)oxy)propan-2-ol], in assay [1], the Emax is over 80% and the IC50 is under 0.001 µM. For the same compound, the IC50 in assay [2] (Homo sapiens, THP1-Dual) is under 0.05 µM.

The record behind these values is patent US20260137706A1, “METHODS OF TREATING INFLAMMATORY DISEASES” (INTERLINE THERAPEUTICS, INC., priority 2023, published 2026).
